Where two headings read alike, the source gives them in different places. One block for each molecule: values may come before it.
How the values were obtained:
[1] = system: SOX17 in H9 human ESC line; settings: SOX17 half-maximal inhibition concentration; read-out: hPST IC50; cited from earlier work
[2] = cited from earlier work; for Development Toxicant Classification: Table S2; for Classification: developmental toxicant classification (Teratogen / Non-Teratogen) of reference and training chemicals, ref DOI per chemical: 10.1093/toxsci/kft239, 10.1093/toxsci/kfaa014, 10.1177/026119290203000204, 10.1038/s41598-020-59542-x; for DT Class.: developmental toxicant classification, chemicals common with hPST
[3] = system: SOX17 (endoderm marker) in RUES2-GLR cells; assay: DevTox GLR-Endo assay: increase in percent SOX17-positive cells (AEID 3093, Sox17_up); assay type: cell-based, human; parameters: tp (winning model): unit not given here; settings: for HIT−CALL: tcpl plot AEID3093, COFF 20.3; for Emax: Homo sapiens
Experimental: (§1) The total test chemical incubation period was 48 h.
(§2) (Supplementary Materials).

[4] = system: SOX2 (ectoderm and pluripotency marker) in RUES2-GLR cells; assay: DevTox GLR-Endo assay: increase in percent SOX2-positive cells (AEID 3095, Sox2_up); settings: for MAX_MEAN: tcpl plot AEID3095, maximum mean response; for MAX_MED: tcpl plot AEID3095, maximum median response; for AC50 / Emax: Homo sapiens; for AC50: read-out: ga (winning model); for Emax: read-out: tp (winning model);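 for all read-outs here: cells exposed to test chemicals for 48 h in total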
H9 human ESC line = settings: cited from earlier work
[5] = system: SOX17 (endoderm marker) in RUES2-GLR cells; assay: DevTox GLR-Endo assay: decrease in percent SOX17-positive cells (AEID 3094, Sox17_dn); settings: for Hit Call: Table S2, SOX17-positive cells, cutoff 3*bmad; for HIT−CALL: tcpl plot AEID3094, COFF 20.3
Experimental: as §1
(§3) Assay plate controls included non-differentiated pluripotent cells maintained in complete Essential 8 Flex medium (baseline control), endoderm differentiated cells (differentiation control), endoderm differentiated cells treated with DMSO (0.2%) (solvent control), and TGF-ß receptor inhibitor SB431542 (1 µM)-treated cells (developmental toxicant-positive control) (Figure S3). All experiments were completed with a minimum of four biological replicates (n = 4).
as §2

RUES2-GLR cells = assay: in vitro; settings: for Emax: Homo sapiens, read-out: Cell Count % Max Inhibition
Experimental: as §1, §3, §2

in vitro = settings: human
Experimental: as §1, §3, §2

[6] = system: BRA (mesoderm marker) in RUES2-GLR cells; assay: DevTox GLR-Endo assay: increase in percent BRA-positive cells (AEID 3096, Bra_up); assay type: cell-based, human; settings: for HIT−CALL: tcpl plot AEID3096, COFF 0.774; for MAX_MEAN: tcpl plot AEID3096, maximum mean response
Experimental: as §1, §2

[7] = cytotoxicity half-maximal concentration
[8] = Table S2, percent SOX17-positive cells, 48 h exposure
[9] = tcpl plot AEID3093, maximum mean response, read-out: MAX_MEAN
[10] = tcpl plot AEID3093, maximum median response, read-out: MAX_MED
[11] = Homo sapiens, 48 h, read-out: DevTox-GLR Endo AC50 (µM), SOX17 half-maximal activity concentration, 48 h exposure
[12] = Homo sapiens, read-out: DevTox % Max Inhibition
[13] = Homo sapiens, read-out: MAX_MEAN
[14] = Homo sapiens, read-out: MAX_MED
[15] = Homo sapiens, read-out: ga (winning model), tcpl plot AEID3094, gain parameter of winning curve fit (log concentration, µM axis), hit calls only (converted)
[16] = Homo sapiens, read-out: tp (winning model)
[17] = Homo sapiens, 48 h, read-out: DevTox-GLR Endo AC50 (µM)

SMILES: CC1=C(/C=C/C(C)=C/C=C/C(C)=C\C(=O)O)C(C)(C)CCC1
IC50 [1]: 0.2 µM
Development Toxicant Classification [2]: Positive
Classification [2]: Teratogen
DT Class. [2]: Pos
HIT−CALL [3]: 0
MAX_MEAN ([3]; tcpl plot AEID3093, maximum mean response): −11.9 Percent Activity
MAX_MED ([3]; tcpl plot AEID3093, maximum median response): −11.9 Percent Activity
ga (winning model) ([4]; tcpl plot AEID3095, gain parameter of winning curve fit (log concentration, µM axis), hit calls only): 1.54
MAX_MEAN [4]: 47.5 Percent Activity
MAX_MED [4]: 48.5 Percent Activity
tp (winning model) ([4]; tcpl plot AEID3095, top of winning curve fit (Hill or gain-loss), hit calls only): 39.6
hPST TC50 (H9 human ESC line; [7]): 140 µM
hPST TC50 (H9 human ESC line; hPST cytotoxicity): 140 µM
SOX17 ACC relative to cytotoxic concentration (in words) [5]: below cytotoxic concentrations
Hit Call [5]: Positive
DevTox % Max Inhibition ([5]; Table S2, percent SOX17-positive cells relative to DMSO): 100.964%
DevTox ACC [5, 8]: 0.02117 µM
AC50 ([5]; read-out: DevTox-GLR Endo AC50, SOX17 half-maximal activity concentration, 48 h exposure): 0.16 µM
HIT−CALL [5]: 1
ga (winning model) ([5]; tcpl plot AEID3094, gain parameter of winning curve fit (log concentration, µM axis), hit calls only): −0.807
MAX_MEAN ([5]; tcpl plot AEID3094, maximum mean response): 101 Percent Activity
MAX_MED ([5]; tcpl plot AEID3094, maximum median response): 101 Percent Activity
tp (winning model) ([5]; tcpl plot AEID3094, top of winning curve fit (Hill or gain-loss), hit calls only): 100
Cell Count ACC (RUES2-GLR cells): 4.122 µM
Cell Count % Max Inhibition (RUES2-GLR cells; Table S2, cell count relative to DMSO): 97.7228%
CC50 (RUES2-GLR cells; read-out: DevTox-GLR Endo CC50, cell count half-maximal concentration, 48 h exposure): 10.2 µM

Cell Count ACC (RUES2-GLR cells; human, 48 h): 3.994 µM
SMILES: O=c1[nH]c(=O)n([C@H]2C[C@H](O)[C@@H](CO)O2)cc1Br [5-Bromo-2’-deoxyuridine]
IC50 [1]: 0.2 µM
Development Toxicant Classification [2]: Positive
Classification [2]: Teratogen
DT Class. [2]: Pos
Emax [3, 9]: -2.88%
Emax [3, 10]: -2.98%
HIT−CALL [3]: 0
AC50 [4]: 13.2 µM
Emax [4]: 2.13%
MAX_MEAN [4]: 2.12 Percent Activity
MAX_MED [4]: 2.23 Percent Activity
hPST TC50 (H9 human ESC line; [7]): 3.4 µM
hPST TC50 (H9 human ESC line; hPST cytotoxicity): 3.4 µM
SOX17 ACC relative to cytotoxic concentration (in words) [5]: below cytotoxic concentrations
AC50 [5, 11]: 0.55 µM
Emax [5, 12]: 102%
Emax [5, 13]: 102%
Emax [5, 14]: 102%
AC50 [5, 15]: 0.548 µM
Emax [5, 16]: 101%
Hit Call [5]: Positive
DevTox ACC [5, 8]: 0.4591 µM
HIT−CALL [5]: 1
CC50 at 48 h (in vitro): 9.37 µM
Emax (RUES2-GLR cells): 87.6%

SMILES: NC(=O)c1ccc(N)nc1 [6-Aminonicotinamide, 6−aminopyridine−3−carboxamide]
IC50 [1]: 7 µM
Development Toxicant Classification [2]: Positive
Classification [2]: Teratogen
DT Class. [2]: Pos
Emax [3, 9]: 2.7%
Emax [3, 10]: 3%
HIT−CALL [3]: 0
AC50 [4]: 309 µM
Emax [4]: 9.6%
MAX_MEAN [4]: 4.77 Percent Activity
MAX_MED [4]: 4.39 Percent Activity
hPST TC50 (H9 human ESC line; [7]): 8 µM
hPST TC50 (H9 human ESC line; hPST cytotoxicity): 8 µM
AC50 [5, 17]: 16.6 µM
Emax [5, 12]: 101%
Emax [5, 13]: 101%
Emax [5, 14]: 101%
AC50 ([5]; Homo sapiens, read-out: ga (winning model)): 16.6 µM
Emax [5, 16]: 101%
Hit Call [5]: Positive
DevTox ACC [5, 8]: 12.5605 µM
HIT−CALL [5]: 1
SOX17 ACC relative to cytotoxic concentration (in words) ([5]; training set, ACC versus cell count ACC): below cytotoxic concentrations
CC50 (in vitro): 23.9 µM
Emax (RUES2-GLR cells): 89.9%
Cell Count ACC (RUES2-GLR cells; Table S2, 48 h exposure): 20.3443 µM

Cell Count ACC (RUES2-GLR cells; human, 48 h): >200 µM
SMILES: Nc1nc2c(ncn2COCCO)c(=O)[nH]1 [Acyclovir]
IC50 [1]: > 200 µM
Emax [3, 9]: 6.68%
Emax [3, 10]: 7.67%
HIT−CALL [3]: 0
MAX_MEAN [4]: 2.09 Percent Activity
MAX_MED [4]: 0.473 Percent Activity
Emax [5, 12]: 7.79%
Emax [5, 13]: 8.36%
Emax [5, 14]: 7.79%
Hit Call [5]: Negative
HIT−CALL [5]: 0
Emax (RUES2-GLR cells): 7.77%
HIT−CALL [6]: 1
MAX_MEAN [6]: 0.981 Percent Activity
MAX_MED ([6]; tcpl plot AEID3096, maximum median response): 1.09 Percent Activity

SMILES: Cn1c(=O)c2c(ncn2C)n(C)c1=O [Caffeine]
IC50 [1]: > 400 µM
Emax [3, 9]: 9.91%
Emax [3, 10]: 11%
HIT−CALL [3]: 0
MAX_MEAN [4]: 0.413 Percent Activity
MAX_MED [4]: 0.416 Percent Activity
AC50 [5, 17]: > 200 µM
Emax [5, 12]: 9.41%
Emax [5, 13]: 6.68%
Emax [5, 14]: 9.41%
Hit Call [5]: Negative
DevTox ACC [5, 8]: >200 µM
HIT−CALL [5]: 0
CC50 at 48 h (in vitro): > 200 µM
Emax (RUES2-GLR cells): 10.3%
Cell Count ACC (RUES2-GLR cells; human, 48 h): >200 µM
HIT−CALL [6]: 1
MAX_MEAN [6]: 1.09 Percent Activity

Cell Count ACC (RUES2-GLR cells; human, 48 h): 0.001329 µM
SMILES: COc1cccc2c1C(=O)c1c(O)c3c(c(O)c1C2=O)C[C@@](O)(C(=O)CO)C[C@@H]3O[C@H]1C[C@H](N)[C@H](O)[C@H](C)O1 [Doxorubicin]
Development Toxicant Classification [2]: Positive
DT Class. [2]: Pos
Emax [3, 9]: 50.4%
Emax [3, 10]: 51.7%
HIT−CALL [3]: 1
tp (winning model) ([3]; tcpl plot AEID3093, top of winning curve fit, hit calls only): 48.7
AC50 [4]: 0.64 µM
Emax [4]: 19.8%
MAX_MEAN [4]: 9.13 Percent Activity
MAX_MED [4]: 8.86 Percent Activity
hPST TC50 (H9 human ESC line; [7]): <0.3 µM
hPST TC50 (H9 human ESC line; hPST cytotoxicity): < 0.3 µM
AC50 [5, 11]: 0.0019 µM
AC50 [5, 15]: 0.00186 µM
Hit Call [5]: Positive
DevTox ACC [5, 8]: 0.001242 µM
HIT−CALL [5]: 1
CC50 at 48 h (in vitro): 0.0033 µM
Emax (RUES2-GLR cells): 93.9%

Cell Count ACC (RUES2-GLR cells; human, 48 h): >200 µM
SMILES: Nc1nc2ncc(CNc3ccc(C(=O)N[C@@H](CCC(=O)O)C(=O)O)cc3)nc2c(=O)[nH]1 [Folic Acid]
IC50 [1]: 39 µM
Emax [3, 9]: 8.84%
Emax [3, 10]: 8.92%
HIT−CALL [3]: 0
MAX_MEAN [4]: 0.885 Percent Activity
MAX_MED [4]: 0.515 Percent Activity
hPST TC50 (H9 human ESC line; [7]): 84 µM
hPST TC50 (H9 human ESC line; hPST cytotoxicity): 84 µM
AC50 [5, 11]: > 200 µM
Emax [5, 12]: 16.4%
Emax [5, 13]: 13.8%
Emax [5, 14]: 16.4%
Hit Call [5]: Negative
DevTox ACC [5, 8]: >200 µM
HIT−CALL [5]: 0
CC50 at 48 h (in vitro): > 200 µM
Emax (RUES2-GLR cells): 13.7%

Cell Count ACC (RUES2-GLR cells; human, 48 h): 122.424 µM
SMILES: CC(C)Cc1ccc(C(C)C(=O)O)cc1 (centres unmarked) [Ibuprofen]
IC50 [1]: > 200 µM
Emax [3, 9]: 11.6%
Emax [3, 10]: 11.9%
HIT−CALL [3]: 0
MAX_MEAN [4]: 0.944 Percent Activity
MAX_MED [4]: 0.561 Percent Activity
Emax [5, 12]: 23.9%
Emax [5, 13]: 24.3%
Emax [5, 14]: 23.9%
Emax [5, 16]: 42.6%
Hit Call [5]: Positive
HIT−CALL [5]: 1
Emax (RUES2-GLR cells): 22.2%

Cell Count ACC (RUES2-GLR cells; human, 48 h): 18.6008 µM
SMILES: CN1CCN2c3ccccc3Cc3ccccc3C2C1 (centres unmarked) [Mianserin]
Development Toxicant Classification [2]: Positive
Classification [2]: Teratogen
DT Class. [2]: Pos
Emax [3, 9]: 2.7%
Emax [3, 10]: 3.98%
HIT−CALL [3]: 0
AC50 [4]: 85.1 µM
Emax [4]: 13.7%
MAX_MEAN [4]: 4.94 Percent Activity
MAX_MED [4]: 5.45 Percent Activity
hPST TC50 (H9 human ESC line; [7]): 60 µM
hPST TC50 (H9 human ESC line; hPST cytotoxicity): 60 µM
DevTox ACC ([5]; 48 h): 13.5618 µM
AC50 [5, 11]: 34.9 µM
Emax [5, 12]: 101%
Emax [5, 13]: 101%
Emax [5, 14]: 101%
AC50 [5, 15]: 34.7 µM
Emax [5, 16]: 122%
Hit Call [5]: Positive
HIT−CALL [5]: 1
CC50 at 48 h (in vitro): 33.6 µM
Emax (RUES2-GLR cells): 97.7%
